Assay results: patent US20240116985A1, “STAPLED PEPTIDES AND METHODS THEREOF” (priority 2020, published 2024)
Values after ≈ are worked out from the molar mass of the structure shown. Read-outs that look alike come from different tables or passages of the source.

What was measured:
Solubility in PBS = format: physicochemical
Outline: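 Read-out is the HPLC peak area of the supernatant from ultracentrifuged PBS solution, scaled against a 50 μM peptide DMSO injection; value reported as [(PBS area)/(DMSO area)]*50 uM.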

[1] = target: T1, beta-catenin/TCF4 engagement (Homo sapiens, UniProt P35222); experiment: Nano-BRET target engagement assay (B-cat-Halo & TCF4-Luc in HEK293 cells); format: cell-based
T1 construct: expressed in transfected cells; host or cells: HEK293
T1 sequence (P35222 1-781): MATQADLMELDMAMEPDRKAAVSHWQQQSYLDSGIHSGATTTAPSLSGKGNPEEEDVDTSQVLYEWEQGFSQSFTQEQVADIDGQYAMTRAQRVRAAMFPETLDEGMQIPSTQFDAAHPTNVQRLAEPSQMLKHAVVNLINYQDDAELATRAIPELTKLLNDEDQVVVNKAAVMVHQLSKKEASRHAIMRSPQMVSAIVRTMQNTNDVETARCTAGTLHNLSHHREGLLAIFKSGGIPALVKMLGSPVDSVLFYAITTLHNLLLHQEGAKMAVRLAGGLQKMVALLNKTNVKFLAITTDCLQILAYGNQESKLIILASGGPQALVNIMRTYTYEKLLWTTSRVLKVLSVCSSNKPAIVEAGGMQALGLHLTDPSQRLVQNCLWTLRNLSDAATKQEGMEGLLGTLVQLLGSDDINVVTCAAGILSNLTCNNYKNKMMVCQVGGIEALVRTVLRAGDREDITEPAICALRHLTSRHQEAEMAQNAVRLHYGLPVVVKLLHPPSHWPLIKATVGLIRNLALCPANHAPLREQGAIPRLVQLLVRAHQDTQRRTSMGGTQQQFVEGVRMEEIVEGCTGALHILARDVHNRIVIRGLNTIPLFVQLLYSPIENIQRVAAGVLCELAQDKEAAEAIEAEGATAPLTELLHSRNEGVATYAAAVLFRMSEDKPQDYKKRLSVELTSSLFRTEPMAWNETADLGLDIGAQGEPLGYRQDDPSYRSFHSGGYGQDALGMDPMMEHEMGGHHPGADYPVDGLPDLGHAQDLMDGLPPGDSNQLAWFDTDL

[2] = target: T2, full-length beta-Catenin (Uniprot ID P35222) (Homo sapiens, UniProt P35222); experiment: Fluorescence polarization IC50 (beta-catenin / 5FAM-TCF4 10-53 competition); format: binding
T2 construct: 10 nM full-length beta-Catenin (Uniprot ID P35222)
T2 sequence (P35222 1-781): T1 sequence (P35222 1-781)

CHI Log D procedure = format: physicochemical; details: for CHI Log D: pH 7.4; for chromatographic logD: pH 7.4, CHI Log D
[3] = absolute IC50, read-out: NanoBRET Abs IC50
[4] = fluorescence polarization, read-out: beta-Catenin FP IC50

SMILES	Solubility (Solubility in PBS) [µM]	IC50 [1, 3] [nM]	IC50 [2, 4] [nM]	IC50 ([2]; read-out: FP EC50) [nM]	CHI Log D (CHI Log D procedure)	chromatographic logD (CHI Log D procedure)	Solubility (Solubility in PBS; Solubility (uM)) [µM]	IC50 ([1]; read-out: NanoBRET Abs IC50) [nM]	IC50 ([2]; read-out: beta-Catenin FP IC50) [nM]	IC50 ([2]; fluorescence polarization, beta-catenin, read-out: FP EC50) [nM]	inhibition at 10 µM ([1]; HEK293, @ 10 uM, read-out: NanoBRET % inh @ 10 uM) [%]	IC50 ([1]; read-out: NanoBRET IC50) [nM]
CC(=O)N1CCC[C@]12CC=CCCCC1(CCCC=CCCCCCC[C@@](C)(C(=O)N[C@@H](Cc3ccccc3)C(=O)N[C@@H](Cc3csc4ccccc34)C(=O)N[C@@H](CCC(N)=O)C(N)=O)NC(=O)[C@H](CC(N)=O)NC(=O)[C@H](Cc3ccccc3)NC(=O)[C@H](C)NC(=O)[C@H](C)NC(=O)[C@H](CC(=O)O)NC(=O)[C@H](CC(=O)O)NC1=O)NC(=O)[C@H](CCC(C)C)NC(=O)[C@H](CC(=O)O)NC2=O (stereo partly drawn) [I-548, Ac-PL3-Asp-hLeu-B5-Asp-Asp-Ala-Ala-Phe-Asn-S8-Phe-BztA-Gln-NH2]	50 (≈ 93.5 µg/mL)	15600	17	17	2.528	–	–	–	–	–	–	–
CC(=O)N1CCC[C@]12CC=CCCCC1(CCCC=CCCCCCC[C@@](C)(C(=O)N[C@@H](Cc3ccccc3)C(=O)N[C@@H](Cc3csc4ccccc34)C(=O)N[C@@H](CCC(N)=O)C(N)=O)NC(=O)[C@H](CC(N)=O)NC(=O)[C@H](Cc3ccccc3)NC(=O)[C@H](C)NC(=O)[C@H](C)NC(=O)[C@H](CC(=O)O)NC(=O)[C@H](CC(=O)O)NC1=O)NC(=O)[C@H](CC(C)(C)C)NC(=O)[C@H](CC(=O)O)NC2=O (stereo partly drawn) [I-546, Ac-PL3-Asp-Npg-B5-Asp-Asp-Ala-Ala-Phe-Asn-S8-Phe-BztA-Gln-NH2]	50 (≈ 93.5 µg/mL)	12100	16	–	–	2.4	–	–	–	–	–	–
CC(=O)N1CCC[C@]12CC=CCCCC1(CCCC=CCCCOC(=O)N3CC[C@@](C(=O)N[C@@H](Cc4ccccc4)C(=O)N[C@@H](Cc4csc5ccccc45)C(=O)N[C@@H](CCC(N)=O)C(N)=O)(C3)NC(=O)[C@H](CC(N)=O)NC(=O)[C@H](Cc3ccccc3)NC(=O)[C@H](C)NC(=O)[C@H](C)NC(=O)[C@H](CCC(=O)O)NC(=O)[C@H](CC(=O)O)NC1=O)NC(=O)[C@H](CC(C)(C)C)NC(=O)[C@H](CC(=O)O)NC2=O (stereo partly drawn) [I-684, Ac-PL3-Asp-Npg-B5-Asp-Glu-Ala-Ala-Phe-Asn-PyrS2-Phe-BztA-Gln-NH2]	44 (≈ 84.8 µg/mL)	14300	15	15	2.037	–	–	–	–	–	–	–
CC(=O)N1CCC[C@]12CC=CCCCC1(CCCC=CCCCCCC[C@@](C)(C(=O)N[C@@H](Cc3ccccc3Cl)C(=O)N[C@@H](Cc3csc4ccccc34)C(=O)N[C@@H](CCC(N)=O)C(N)=O)NC(=O)[C@H](CC(C)C)NC(=O)[C@H](Cc3ccccc3)NC(=O)[C@H](C)NC(=O)[C@H](C)NC(=O)[C@H](CCC(=O)O)NC(=O)[C@H](CC(=O)O)NC1=O)NC(=O)[C@H](CC(C)(C)C)NC(=O)[C@H](CC(=O)O)NC2=O (stereo partly drawn) [I-1096, Ac-PL3-Asp-Npg-B5-Asp-Glu-Ala-Ala-Phe-Leu-S8-2C1F-BztA-Gln-NH2]	10 (≈ 19.2 µg/mL)	–	–	–	–	3.18	–	8600	17	–	–	–
COc1cccc(C[C@@H]2NC(=O)[C@H](C)NC(=O)[C@H](C)NC(=O)[C@H](CC(=O)O)NC(=O)[C@H](CC(=O)O)NC(=O)C3(CCCC=CCCCOC(=O)N4CC[C@@](C(=O)N[C@@H](Cc5ccccc5Cl)C(=O)N[C@@H](Cc5csc6ccccc56)C(=O)N[C@@H](CCC(N)=O)C(N)=O)(C4)NC(=O)[C@H](CC(C)C)NC2=O)CCCC=CC[C@]2(CCCN2C(C)=O)C(=O)N[C@@H](CC(=O)O)C(=O)N[C@@H](CC(C)(C)C)C(=O)N3)c1 (stereo partly drawn) [I-1121, Ac-PL3-Asp-Npg-B5-Asp-Asp-Ala-Ala-3OMeF-Leu-PyrS2-2C1F-BztA-Gln-NH2]	–	–	–	–	–	2.31	41 (≈ 81 µg/mL)	9200	18	–	–	–
CC(=O)N1CCC[C@]12CC=CCCCC1(CCCC=CCCCOC(=O)N3CC[C@@](C(=O)N[C@@H](Cc4cccc5ccccc45)C(=O)N[C@@H](Cc4csc5ccccc45)C(=O)N[C@@H](Cc4c[nH]cn4)C(N)=O)(C3)NC(=O)[C@H](CC(N)=O)NC(=O)[C@H](Cc3ccccc3)NC(=O)[C@H](C)NC(=O)[C@H](C)NC(=O)[C@H](CC(=O)O)NC(=O)[C@H](CC(=O)O)NC1=O)NC(=O)[C@H](CC(C)(C)C)NC(=O)[C@H](CC(=O)O)NC2=O (stereo partly drawn) [I-794, Ac-PL3-Asp-Npg-B5-Asp-Asp-Ala-Ala-Phe-Asn-PyrS2-1NapA-BztA-His-NH2]	–	–	–	–	–	2.38	40 (≈ 78.8 µg/mL)	26400	19	–	–	–

The next lines start with the values.

Solubility (Solubility in PBS) [µM]	IC50 [1, 3] [nM]	IC50 [2, 4] [nM]	IC50 ([2]; read-out: FP EC50) [nM]	CHI Log D (CHI Log D procedure)	chromatographic logD (CHI Log D procedure)	Solubility (Solubility in PBS; Solubility (uM)) [µM]	IC50 ([1]; read-out: NanoBRET Abs IC50) [nM]	IC50 ([2]; read-out: beta-Catenin FP IC50) [nM]	IC50 ([2]; fluorescence polarization, beta-catenin, read-out: FP EC50) [nM]	inhibition at 10 µM ([1]; HEK293, @ 10 uM, read-out: NanoBRET % inh @ 10 uM) [%]	IC50 ([1]; read-out: NanoBRET IC50) [nM]	SMILES
–	–	–	–	–	2.55	44 (≈ 97.2 µg/mL)	15200	28	–	–	–	CC(=O)N1CCC[C@]12CC=CCCCC1(CCCC=CCCCOC(=O)N3CC[C@@](C(=O)N[C@@H](Cc4ccsc4)C(=O)N[C@@H](Cc4csc5ccccc45)C(=O)N[C@@H](CCC(N)=O)C(=O)N[C@@H](CCCCNC(=O)C45CC6CC(CC(C6)C4)C5)C(N)=O)(C3)NC(=O)[C@H](CC(N)=O)NC(=O)[C@H](Cc3ccccc3)NC(=O)[C@H](C)NC(=O)[C@H](C)NC(=O)[C@H](CC(=O)O)NC(=O)[C@H](CC(=O)O)NC1=O)NC(=O)[C@H](CC(C)(C)C)NC(=O)[C@H](CC(=O)O)NC2=O (stereo partly drawn) [I-919, Ac-PL3-Asp-Npg-B5-Asp-Asp-Ala-Ala-Phe-Asn-PyrS2-3Thi-BztA-Gln-[AdamantC]Lys-NH2]
–	–	–	–	–	2.2	42 (≈ 88.3 µg/mL)	> 20000	16	–	–	–	CCCCCCCC(=O)NCCCC[C@@H]1NC(=O)[C@H](C)NC(=O)[C@H](CC(=O)O)NC(=O)[C@H](CC(=O)O)NC(=O)C2(CCCC=CCCCOC(=O)N3CC[C@@](C(=O)N[C@@H](Cc4ccsc4)C(=O)N[C@@H](Cc4csc5ccccc45)C(=O)N[C@@H](CCC(N)=O)C(N)=O)(C3)NC(=O)[C@H](CC(N)=O)NC(=O)[C@H](Cc3ccccc3)NC1=O)CCCC=CC[C@]1(CCCN1C(C)=O)C(=O)N[C@@H](CC(=O)O)C(=O)N[C@@H](CC(C)(C)C)C(=O)N2 (stereo partly drawn) [I-898, Ac-PL3-Asp-Npg-B5-Asp-Asp-Ala-[Oct]Lys-Phe-Asn-PyrS2-3Thi-BztA-Gln-NH2]
30 (≈ 60.1 µg/mL)	–	–	–	2.066	–	–	22700	15	15	–	–	CC(=O)N1CCC[C@]12CC=CCCCC1(CCCC=CCCCCOC(=O)N3CC[C@@](C(=O)N[C@@H](Cc4ccsc4)C(=O)N[C@@H](Cc4csc5ccccc45)C(=O)N[C@@H](CCC(N)=O)C(=O)N[C@@H](C)C(N)=O)(C3)NC(=O)[C@H](CC(N)=O)NC(=O)[C@H](Cc3ccccc3)NC(=O)[C@H](C)NC(=O)[C@H](C)NC(=O)[C@H](CC(=O)O)NC(=O)[C@H](CC(=O)O)NC1=O)NC(=O)[C@H](CC(C)(C)C)NC(=O)[C@H](CC(=O)O)NC2=O (stereo partly drawn) [I-826, Ac-PL3-Asp-Npg-B5-Asp-Asp-Ala-Ala-Phe-Asn-PyrS3-3Thi-BztA-Gln-Ala-NH2]
–	–	–	–	–	1.93	44 (≈ 99 µg/mL)	28400	8	–	–	–	CC(=O)N1CCC[C@]12CC=CCCCC1(CCCC=CCCCOC(=O)N3CC[C@@](C(=O)N[C@@H](Cc4ccsc4)C(=O)N[C@@H](Cc4csc5ccccc45)C(=O)N[C@@H](CCC(N)=O)C(=O)N[C@@H](CCCCNC(=O)c4ccc(CN5CCOCC5)cc4)C(N)=O)(C3)NC(=O)[C@H](CC(N)=O)NC(=O)[C@H](Cc3ccccc3)NC(=O)[C@H](C)NC(=O)[C@H](C)NC(=O)[C@H](CC(=O)O)NC(=O)[C@H](CC(=O)O)NC1=O)NC(=O)[C@H](CC(C)(C)C)NC(=O)[C@H](CC(=O)O)NC2=O (stereo partly drawn) [I-909, Ac-PL3-Asp-Npg-B5-Asp-Asp-Ala-Ala-Phe-Asn-PyrS2-3Thi-BztA-Gln-[MeMorphBz]Lys-NH2]
–	–	–	–	–	2.19	48 (≈ 93.4 µg/mL)	6200	7	–	50.9	7500	CC(=O)N1CCC[C@]12CC=CCCCC1(CCCC=CCCCOC(=O)N3CC[C@@](C(=O)N[C@@H](Cc4ccccc4Cl)C(=O)N[C@@H](Cc4csc5ccccc45)C(=O)N[C@@H](CCC(N)=O)C(N)=O)(C3)NC(=O)[C@H](CC(N)=O)NC(=O)[C@H](Cc3ccccc3)NC(=O)[C@H](C)NC(=O)[C@H](C)NC(=O)[C@H](CC(=O)O)NC(=O)[C@H](CC(=O)O)NC1=O)NC(=O)[C@H](CC(C)(C)C)NC(=O)[C@H](CC(=O)O)NC2=O (stereo partly drawn) [I-783, Ac-PL3-Asp-Npg-B5-Asp-Asp-Ala-Ala-Phe-Asn-PyrS2-2C1F-BztA-Gln-NH2]
